Test results from patent US8217048B2, “Inhibitors of serine proteases, particularly HCV NS3-NS4A protease” (Vertex Pharmaceuticals Incorporated, priority 2003, dated 2012).

What was measured:
HCV NS3-NS4A protease = target: T1, HCV NS3-NS4A protease (Hepatitis C virus genotype 1a, UniProt P27958); test: HCV Ki Assay (enzyme, Example 5); type: biochemical; details: Ki values, tested according to Example 5 (enzyme); 5AB substrate, tNS3 with KK4A
T1 construct: The buffer, KK4A, DTT, and tNS3 were combined
T1 sequence (P27958 1658-1711): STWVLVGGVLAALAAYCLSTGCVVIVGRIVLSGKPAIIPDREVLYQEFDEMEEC
T1 sequence (P27958 1027-1208): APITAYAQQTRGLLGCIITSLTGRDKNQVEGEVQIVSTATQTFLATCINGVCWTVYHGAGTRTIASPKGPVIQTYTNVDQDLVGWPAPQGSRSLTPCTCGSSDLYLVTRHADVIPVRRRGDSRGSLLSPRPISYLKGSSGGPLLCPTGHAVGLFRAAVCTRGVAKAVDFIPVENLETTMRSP
Procedure: HPLC Microbore Method for Separation of 5AB Substrate and Products
NH2-Glu-Asp-Val-Val-(alpha)Abu-Cys-Ser-Met-Ser-Tyr-COOH
A stock solution of 20 mM 5AB (or concentration of your choice) was made in DMSO w/0.2M DTT. This was stored in aliquots at −20 C.
Buffer: 50 mM HEPES, pH 7.8; 20% glycerol; 100 mM NaCl
Total assay volume was 100 μL
The buffer, KK4A, DTT, and tNS3 were combined; distributed 78 μL each into wells of 96 well plate. This was incubated at 30 C for ˜5-10 min.
2.5 μL of appropriate concentration of test compound was dissolved in DMSO (DMSO only for control) and added to each well. This was incubated at room temperature for 15 min.
Initiated reaction by addition of 20 μL of 250 μM 5AB substrate (25 μM concentration is equivalent or slightly lower than the Km for 5AB).
Incubated for 20 min at 30 C.
Terminated reaction by addition of 25 μL of 10% TFA
Transferred 120 μL aliquots to HPLC vials
Separated SMSY product from substrate and KK4A by the following method:
Microbore Separation Method:
Instrumentation: Agilent 1100
Column thermostated chamber G1316A
Diode array detector G1315A
Solvent A=HPLC grade water+0.1% TFA
Solvent B=HPLC grade acetonitrile+0.1% TFA
Stop time: 17 min Post-run time: 10 min.

[1] = system: Cells containing hepatitis C virus (HCV) replicon; test: HCV Replicon Cell Assay (Example 4); type: cell-based; details: 48 h, tested according to Example 4 (cell), 50% inhibition of HCV RNA level, 48-hour incubation
Procedure: HCV Replicon Cell Assay Protocol
Cells containing hepatitis C virus (HCV) replicon were maintained in DMEM containing 10% fetal bovine serum (FBS), 0.25 mg per ml of G418, with appropriate supplements (media A).
On day 1, replicon cell monolayer was treated with a trypsin:EDTA mixture, removed, and then media A was diluted into a final concentration of 100,000 cells per ml wit. 10,000 cells in 100 ul were plated into each well of a 96-well tissue culture plate, and cultured overnight in a tissue culture incubator at 37° C.
On day 2, compounds (in 100% DMSO) were serially diluted into DMEM containing 2% FBS, 0.5% DMSO, with appropriate supplements (media B). The final concentration of DMSO was maintained at 0.5% throughout the dilution series.
Media on the replicon cell monolayer was removed, and then media B containing various concentrations of compounds was added. Media B without any compound was added to other wells as no compound controls.
Cells were incubated with compound or 0.5% DMSO in media B for 48 hours in a tissue culture incubator at 37° C. At the end of the 48-hour incubation, the media was removed, and the replicon cell monolayer was washed once with PBS and stored at −80° C. prior to RNA extraction.
Culture plates with treated replicon cell monolayers were thawed, and a fixed amount of another RNA virus, such as Bovine Viral Diarrhea Virus (BVDV) was added to cells in each well, RNA extraction reagents (such as reagents from RNeasy kits) were added to the cells immediately to avoid degradation of RNA. Total RNA was extracted according the instruction of manufacturer with modification to improve extraction efficiency and consistency. Finally, total cellular RNA, including HCV replicon RNA, was eluted and stored at −80° C. until further processing.
A Taqman real-time RT-PCR quantification assay was set up with two sets of specific primers and probe. One was for HCV and the other was for BVDV. Total RNA extractants from treated HCV replicon cells was added to the PCR reactions for quantification of both HCV and BVDV RNA in the same PCR well. Experimental failure was flagged and rejected based on the level of BVDV RNA in each well. The level of HCV RNA in each well was calculated according to a standard curve run in the same PCR plate. The percentage of inhibition or decrease of HCV RNA level due to compound treatment was calculated using the DMSO or no compound control as 0% of inhibition. The IC50 (concentration at which 50% inhibition of HCV RNA level is observed) was calculated from the titration curve of any given compound.

CCC[C@H](NC(=O)[C@@H]1C[C@@H](Oc2ccc(Cl)cn2)CN1C(=O)[C@@H](NC(=O)[C@@H](NC(=O)c1cnccn1)C1CCCCC1)C(C)(C)C)C(=O)C(=O)NC1CC1 [Compound 59, Pyrazine-2-carboxylic acid ({1-[4-(5-chloro-pyridin-2-yloxy)-2-(1-cyclopropylaminooxalyl-butylcarbamoyl)-pyrrolidine-1-carbonyl]-2,2-dimethyl-propylcarbamoyl}-cyclohexyl-methyl)-amide] was tested, and the Ki (HCV NS3-NS4A protease) was < 100 nM and the IC50 [1] was < 500 nM.

With CCC[C@H](NC(=O)[C@@H]1C[C@@H](Oc2ccc(Cl)c3ccccc23)CN1C(=O)[C@@H](NC(=O)[C@@H](NC(=O)c1cnccn1)C1CCCCC1)C(C)(C)C)C(=O)C(=O)NC1CC1 [Compound 40] the Ki (HCV NS3-NS4A protease) was < 100 nM and the IC50 [1] was < 500 nM.

CCC[C@H](NC(=O)[C@@H]1C[C@@H](Oc2cccc(Cl)c2)CN1C(=O)[C@@H](NC(=O)[C@@H](NC(=O)c1cnccn1)C1CCCCC1)C(C)(C)C)C(=O)C(=O)NC1CC1 [Compound 66] was tested, and the Ki (HCV NS3-NS4A protease) was 100 to 300 nM and the IC50 [1] was < 500 nM.

In the case of CCC[C@H](NC(=O)C1C[C@@H](Oc2ccccc2C(F)(F)F)CN1C(=O)[C@@H](NC(=O)[C@@H](NC(=O)c1cnccn1)C1CCCCC1)C(C)(C)C)C(=O)C(=O)NC1CC1 (stereo partly shown) [Compound 6], the Ki (HCV NS3-NS4A protease) is reported as > 300 nM and the IC50 [1] is reported as > 1000 nM.

With CCC[C@H](NC(=O)[C@@H]1C[C@@H](Oc2ccncn2)CN1C(=O)[C@@H](NC(=O)[C@@H](NC(=O)c1cnccn1)C1CCCCC1)C(C)(C)C)C(=O)C(=O)NC1CC1 [Compound 50] the Ki (HCV NS3-NS4A protease) was 100 to 300 nM and the IC50 [1] was < 500 nM.

CCC[C@H](NC(=O)C1C[C@@H](Oc2cc(F)ccc2F)CN1C(=O)[C@@H](NC(=O)[C@@H](NC(=O)c1cnccn1)C1CCCCC1)C(C)(C)C)C(=O)C(=O)NC1CC1 (stereo partly shown) [Compound 8] showed a Ki (HCV NS3-NS4A protease) of 100 to 300 nM and an IC50 [1] of 500 to 1000 nM.

In the case of CCC[C@H](NC(=O)[C@@H]1C[C@@H](Oc2ccc(OC)c3ccccc23)CN1C(=O)[C@@H](NC(=O)[C@@H](NC(=O)c1cnccn1)C1CCCCC1)C(C)(C)C)C(=O)C(=O)NC1CC1 [Compound 38], the Ki (HCV NS3-NS4A protease) is reported as < 100 nM and the IC50 [1] is reported as < 500 nM.

CCC[C@H](NC(=O)[C@@H]1C[C@@H](Oc2cccc(-c3ccccc3)c2)CN1C(=O)[C@@H](NC(=O)[C@@H](NC(=O)c1cnccn1)C1CCCCC1)C(C)(C)C)C(=O)C(=O)NC1CC1 [Compound 15] was tested, and the Ki (HCV NS3-NS4A protease) was < 100 nM and the IC50 [1] was < 500 nM.

CCC[C@H](NC(=O)[C@@H]1C[C@@H](Oc2ccc(Cl)c(Cl)c2)CN1C(=O)[C@@H](NC(=O)[C@@H](NC(=O)c1cnccn1)C1CCCCC1)C(C)(C)C)C(=O)C(=O)NC1CC1 [Compound 53] was tested, and the Ki (HCV NS3-NS4A protease) was < 100 nM and the IC50 [1] was < 500 nM.

With CCC[C@H](NC(=O)[C@@H]1C[C@@H](Oc2ccc(F)cc2)CN1C(=O)[C@@H](NC(=O)[C@@H](NC(=O)c1cnccn1)C1CCCCC1)C(C)(C)C)C(=O)C(=O)NC1CC1 [Compound 43] the Ki (HCV NS3-NS4A protease) was < 100 nM and the IC50 [1] was < 500 nM.

CCC[C@H](NC(=O)C1C[C@@H](Oc2cc(Cl)cc(Cl)c2)CN1C(=O)[C@@H](NC(=O)[C@@H](NC(=O)c1cnccn1)C1CCCCC1)C(C)(C)C)C(=O)C(=O)NC1CC1 (stereo partly shown) [Compound 12] was tested, and the Ki (HCV NS3-NS4A protease) was 100 to 300 nM and the IC50 [1] was < 500 nM.

CCC[C@H](NC(=O)[C@@H]1C[C@@H](Oc2ncnc3ccccc23)CN1C(=O)[C@@H](NC(=O)[C@@H](NC(=O)c1cnccn1)C1CCCCC1)C(C)(C)C)C(=O)C(=O)NC1CC1 [Compound 42] was tested, and the Ki (HCV NS3-NS4A protease) was < 100 nM and the IC50 [1] was < 500 nM.

In the case of CCC[C@H](NC(=O)[C@@H]1C[C@@H](Oc2cccc(C(=O)OC)c2)CN1C(=O)[C@@H](NC(=O)[C@@H](NC(=O)c1cnccn1)C1CCCCC1)C(C)(C)C)C(=O)C(=O)NC1CC1 [Compound 45], the Ki (HCV NS3-NS4A protease) is reported as < 100 nM and the IC50 [1] is reported as < 500 nM.

For CCC[C@H](NC(=O)[C@@H]1C[C@@H](Oc2cccc(S(=O)(=O)NC)c2)CN1C(=O)[C@@H](NC(=O)[C@@H](NC(=O)c1cnccn1)C1CCCCC1)C(C)(C)C)C(=O)C(=O)NC1CC1 [Compound 47], the Ki (HCV NS3-NS4A protease) was > 300 nM and the IC50 [1] was < 500 nM.
